Measurements: patent publication US8293705B2, “HCV protease inhibitors and uses thereof” (Avila Therapeutics, Inc., priority 2007, dated 2012)

Assays:
[1] = biological target: T1, HCV NS3/4A 1b protease A156T (Hepatitis C virus genotype 1b, UniProt Q9WMX2, A1182T); test: HCV protease FRET assay (IC50), Example 15; format: biochemical
T1 construct: 10× stocks of NS3/4A protease enzyme from Bioenza (Mountain View, Calif.); purchased Bioenza (Mountain View, Calif.)
Description: (§1) The following protocol was used to generate IC50 values as depicted for compound 239 in Table 4, above. The protocol is a modified FRET-based assay (v—02) from In Vitro Resistance Studies of HCV Serine Protease Inhibitors, 2004, JBC, vol. 279, No. 17, pp 17508-17514.
(§2) 10× stocks of NS3/4A protease enzyme from Bioenza (Mountain View, Calif.) and 1.13× 5-FAM/QXL™520 FRET peptide substrate from Anaspec (San Jose, Calif.) were prepared in 50 mM HEPES, pH 7.8, 100 mM NaCl, 5 mM DTT and 20% glycerol. 5 μL of each enzyme were pre-incubated in a Corning (#3573) 384-well, black, non-treated microtiter plate (Corning, N.Y.) for 30 min at 25° C. with a 0.5 μL volume of 50% DMSO and serially diluted compounds prepared in 50% DMSO. Protease reactions were started with the addition of 45 μL of the FRET substrate and monitored for 120 minutes at λex487/λem514 through Quad^4 monochromoters in a Synergy^4 plate reader from BioTek (Winooski, Vt.). At the conclusion of each assay, progress curves from each well were examined for linear reaction kinetics and fit statistics (R^2, absolute sum of squares). Initial velocity (0 minutes to 30+ minutes) from each reaction was determined from the slope of a plot of relative fluorescence units vs time (minutes) and then plotted against inhibitor concentration to estimate IC50 from log [Inhibitor] vs Response, Variable Slope model in GraphPad Prism from GraphPad Software (San Diego, Calif.).
(§3) The compound numbers correspond to the compound numbers in Table 3. […] ;

[2] = biological target: T2, HCV NS3/4A 1b protease D168A (Hepatitis C virus genotype 1b, UniProt Q9WMX2, D1194A); test: HCV protease FRET assay (IC50), Example 15; format: biochemical
T2 construct: 10× stocks of NS3/4A protease enzyme from Bioenza (Mountain View, Calif.); purchased Bioenza (Mountain View, Calif.)
Description: as §1, §2, §3

[3] = biological target: T3, HCV NS3/4A 1b protease wild type (Hepatitis C virus genotype 1b, UniProt Q9WMX2); test: HCV protease FRET assay (IC50), Example 15; format: biochemical
T3 construct: 10× stocks of NS3/4A protease enzyme from Bioenza (Mountain View, Calif.); purchased Bioenza (Mountain View, Calif.)
Description: as §1, §2, §3

[4] = biological target: T1, HCV NS3/4A 1b protease A156T; test: HCV protease FRET assay (IC50_APP), Example 16; format: biochemical
[5] = biological target: T2, HCV NS3/4A 1b protease D168A; test: HCV protease FRET assay (IC50_APP), Example 16; format: biochemical
[6] = biological target: T3, HCV NS3/4A 1b protease wild type; test: HCV protease FRET assay (IC50_APP), Example 16; format: biochemical
[7] = system: HCV RNA replicon in cell line ET (luc-ubi-neo/ET), human Huh7 hepatoma; test: HCV RNA replicon assay, Example 14 Method A; format: cell-based; settings: Hepatitis C virus, Huh-7, assay of Example 14, 72 hr; for IC50: read-out: Inhibition, Replicon (IC50); for IC90: read-out: Inhibition, Replicon, IC90 value
Description: The compounds were assayed to evaluate the antiviral activity and cytotoxicity of compounds in vitro using HCV RNA replicons. This assay used the cell line ET (luc-ubi-neo/ET), which is a human Huh7 hepatoma cell line that contains an HCV RNA replicon with a stable luciferase (Luc) reporter and three cell culture-adaptive mutations. […]
The ET cell line was grown in Dulbecco's modified essential media (DMEM), 10% fetal bovine serum (FBS), 1% penicillin-streptomycin (pen-strep), 1% glutamine, 250 μg/mL G418 in a 5% CO2 incubator at 37° C. All cell culture reagents were obtained from Mediatech (Manassas, Va.). Cells were trypsinized (1% trypsin:EDTA) and plated out at 5×10^3 cells/well in white 96-well assay plates (Costar) dedicated to cell number (cytotoxicity) or antiviral activity assessments. Drugs were added at six 3-fold concentrations each and the assay was run in DMEM, 5% FBS, 1% pen-strep, 1% glutamine. Human interferon alpha-2b (PBL Biolabs, New Brunswick, N.J.) was included in each run as a positive control compound. Cells were processed 72 hr post drug addition when the cells are still subconfluent. Antiviral activity was measured by analyzing replicon-derived luciferase activity using the Steady-Glo Luciferase Assay System (Promega, Madison, Wis.) according to manufacturer's instruction. The number of cells in each well was determined by CytoTox-1 reagent (Promega). Compound profile was derived by calculating applicable EC50 (effective concentration inhibiting virus replication by 50%), EC90 (effective concentration inhibiting virus replication by 90%), IC50 (concentration decreasing cell viability by 50%) and SI50 (selective index: […]) values.

HCV NS3/4A wild type = biological target: T4, HCV NS3/4A wild type (Hepatitis C virus genotype 1b, UniProt Q9WMX2); test: Mass spectrometric analysis of covalent modification (MALDI-TOF); format: binding; settings: 10× excess of test compound to protein
T4 construct: HCV NS3/4A wild type (wt) was incubated for 1 hr at a 10× fold access of test compound to protein; purchased Bioenza, Calif
Summary of the method: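 HCV NS3/4A protease (100 pmol wild type; C159S mutant as comparison) incubated with 10-fold molar excess of compound for 1 and 3 h. Samples acidified in 0.1% TFA, C4 ZipTip-desalted, analysed by MALDI-TOF intact-mass measurement in linear mode, sinapinic acid matrix.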

HCV NS3•4A protease WT = HCV NS3•4A protease WT (Hepatitis C virus genotype 1b, UniProt Q9WMX2); test: cell-based
[8] = biological target: T5, HCV NS3/4A 1b protease R155K (Hepatitis C virus genotype 1b, UniProt Q9WMX2, R1181K); test: HCV protease FRET assay (IC50_APP), Example 16; format: biochemical; settings: reaction started immediately after enzyme addition, read-out: Inhibition (apparent IC50, IC50_APP), HCV R155K
T5 construct: 10× stocks of NS3/4A protease enzyme from Bioenza (Mountain View, Calif.); purchased Bioenza (Mountain View, Calif.)

[9] = biological target: T6, HCV NS3/4A mutant A156T protease (Hepatitis C virus genotype 1b, UniProt Q9WMX2, A1182T); test: Mass spectrometric analysis of covalent modification (MALDI-TOF); format: binding; settings: 3 hours, 10× excess of compound
T6 construct: mass spectroscopic analysis of HCV NS3/4A mutant A156T protease in the presence of test compound I-11
Description: (§4) As depicted in FIGS. 4, 5, 6, and 7, mass spectrometric analysis of HCV mutants in the presence of compound I-11 was performed. […] 2 ul aliquots of the samples were diluted with 10 ul of 0.1% TFA prior to micro C4 ZipTipping directly onto the MALDI target using Sinapinic acid as the desorption matrix (10 mg/ml in 0.1% TFA:Acetonitrile 50:50). For intact protein mass measurement the instrument was set in linear mode using a pulsed extraction setting of 24,500 and apomyoglobin as the standard to calibrate the instrument.

[10] = biological target: T7, HCV NS3/4A mutant R155K protease (Hepatitis C virus genotype 1b, UniProt Q9WMX2, R1181K); test: as above; format: binding; settings: 3 hours, 10× excess of compound
T7 construct: mass spectroscopic analysis of HCV NS3/4A mutant R155K protease in the presence of test compound I-11
Description: as §4

[11] = biological target: T8, HCV NS3/4A 1b protease C159S (Hepatitis C virus genotype 1b, UniProt Q9WMX2, C1185S); test: HCV protease FRET assay (IC50_APP), Example 16; format: biochemical; settings: reaction started immediately after enzyme addition, read-out: Inhibition (apparent IC50, IC50_APP), HCV C159S
T8 construct: 10× stocks of NS3/4A protease enzyme from Bioenza (Mountain View, Calif.); purchased Bioenza (Mountain View, Calif.)

[12] = system: HCV RNA replicon in cell line ET (luc-ubi-neo/ET), human Huh7 hepatoma; test: Replicon luciferase assay, Example 26; format: cell-based; settings: Hepatitis C virus, Huh-7, assay of Example 26, 72 hr; for EC50: read-out: Inhibition, Replicon, EC50 value
Description: The compounds were assayed to evaluate the antiviral activity and cytotoxicity of compounds using replicon-derived luciferase activity. This assay used the cell line ET (luc-ubi-neo/ET), which is a human Huh7 hepatoma cell line that contains an HCV RNA replicon with a stable luciferase (Luc) reporter and cell culture-adaptive mutations. The ET cell line was grown in a 5% CO2 incubator at 37° C. in Dulbecco's modified essential media (DMEM) supplemented with 2 mM L-glutamine, nonessential amino acids, 100 U of penicillin/ml, 100 μg of streptomycin/mL, and 10% fetal bovine serum. G418 (Geneticin; Invitrogen) was added at a final concentration of 400 ug//mL.
All cell culture reagents were obtained from Invitrogen (Carlsbad). Cells were trypsinized (1% trypsin:EDTA) and plated out at 5×10^3 cells/well in white 96-well assay plates (Costar) dedicated to cell number (cytotoxicity) or antiviral activity assessments. Test compounds were added at six 3-fold concentrations each and the assay was run in DMEM, 5% FBS, 1% pen-strep, 1% glutamine, 1% non essential amino acid. Human interferon alpha-2b (PBL Biolabs, New Brunswick, N.J.) was included in each run as a positive control compound. Cells were processed 72 hr post test compound addition when the cells were still subconfluent. Antiviral activity was measured by analyzing replicon-derived luciferase activity using the Steady-Glo Luciferase Assay System (Promega, Madison, Wis.) according to manufacturer's instruction. The number of cells in each well was determined by Cell Titer Blue Assay (Promega). Compound profile was derived by calculating applicable EC50 (effective concentration inhibiting virus replication by 50%), EC90 (effective concentration inhibiting virus replication by 90%), IC50 (concentration decreasing cell viability by 50%) and SI50 (selective index: […]) values.

[13] = biological target: T9, NS3 protease self-cleavage in Huh-7-Luc-Neo-ET replicon cells (Hepatitis C virus genotype 1b, UniProt Q9WMX2, E1202G/T1280I); test: Inhibition of protease self cleavage in replicon cells (washout); format: cell-based; settings: 16 hours continuous exposure
T9 construct: blotted with polyclonal anti NS3 antibody (Bioenza, Calif.)
Description: Huh-7-Luc-Neo-ET cells were plated in Replicon Assay Medium (RPMI supplemented with 5% FBS, 1× non-essential amino acids and pen/strep) at a density of 1×10^5 cells/well in 12 well plates. Eight hours later the media was removed and replaced with 1 ml media containing test compound (5 wells per compound) and 0.02% DMSO and the cells were returned to the incubator overnight. Sixteen hours later 1 well from each compound and 1 untreated well were washed with PBS, then lysed and scraped into 30 ul of Cell Extraction Buffer (Biosource, Camarillo, Calif.) plus Complete Protease Inhibitor (Roche, Indianapolis, Ind.). The remaining wells were rinsed 2× with PBS then fed with Replicon Media and returned to the incubator. […]
Cell lysates were separated by SDS-Page (4-20%) and transferred to Immobilon-P PVDF membrane (Millipore Corporation, MA) and blotted with polyclonal anti NS3 antibody (Bioenza, Calif.). Blots were scanned on an Odyssey infrared scanner from Licor and the FL band and cleavage products were quantified separately using the Licor software provided with the scanner. The cleavage product was calculated as a percentage of the total NS3 in each sample and then normalized to the DMSO control so that the DMSO control reflects 100% activity.

[14] = Inhibition (IC50), HCV D168A, FRET, 30 min pre-incubation at 25° C.

SMILES | IC50 ([1]; Comparative IC50 Values, A156T, biochemical assay, applicant's compound) | IC50 ([1]; Inhibition (IC50), HCV A156T, FRET, 30 min pre-incubation at 25° C.) | IC50 ([2]; Comparative IC50 Values, D168A, biochemical assay, applicant's compound) | IC50 [2, 14] | IC50 [3] | IC50 [4] | IC50 [5] | IC50 [6] | IC50 [7] | IC90 [7] | Covalent modification of HCV NS3/4A wild type (HCV NS3/4A wild type; MALDI-TOF) | Mass increase of new protein species vs protein with no compound (HCV NS3/4A wild type; 1 hr) | IC50 (HCV NS3•4A protease WT) | IC50 [8] | Conversion of HCV (A156T) mutant to compound adduct [9] | Conversion of HCV (R155K) mutant to compound adduct [10] | IC50 [11] | EC50 [12] | EC90 ([12]; read-out: Inhibition, Replicon, EC90 value) | NS3 internal self-cleavage products after treatment of replicon cells [13]
C=CC(=O)NC[C@H](NC(=O)OC(C)(C)C)C(=O)N1C[C@H](OC(=O)N2Cc3cccc(F)c3C2)C[C@H]1C(=O)N[C@]1(C(=O)NS(=O)(=O)C2CC2)C[C@H]1C=C [Compound I-1, (3R,5S)-1-((S)-3-acrylamido-2-(tert-butoxycarbonylamino)propanoyl)-5-((1R,2S)-1-(cyclopropylsulfonylcarbamoyl)-2-vinylcyclopropylcarbamoyl)pyrrolidin-3-yl 4-fluoroisoindoline-2-carboxylate] | 3 nM | < 10 nM | 8 nM | < 10 nM | < 10 nM | 10 to 100 nM | 100 to 1000 nM | < 10 nM | 10 to 100 nM | 10 to 100 nM | reacted significantly | approximately 751 Da | 0.66 nM | – | – | – | – | – | – | –
C=CC(=O)N(C)C[C@H](NC(=O)OC(C)(C)C)C(=O)N1C[C@H](OC(=O)N2Cc3cccc(F)c3C2)C[C@H]1C(=O)N[C@]1(C(=O)NS(=O)(=O)C2CC2)C[C@H]1C=C [Compound I-11, (3R,5S)-1-((S)-2-(tert-butoxycarbonylamino)-3-(N-methylacrylamido)propanoyl)-5-((1R,2S)-1-(cyclopropylsulfonylcarbamoyl)-2-vinylcyclopropylcarbamoyl)pyrrolidin-3-yl 4-fluoroisoindoline-2-carboxylate] | – | – | – | 10 to 100 nM | < 10 nM | < 10 nM | 10 to 100 nM | < 10 nM | < 10 nM | 10 to 100 nM | – | – | – | 10 to 100 nM | complete conversion | good conversion | – | – | – | –
C=C[C@@H]1C[C@]1(NC(=O)[C@@H]1CC(OC(=O)N2Cc3cccc(F)c3C2)CN1C(=O)[C@H](CC(=O)C=C(C)C)NC(=O)OC(C)(C)C)C(=O)NS(=O)(=O)C1CC1 (some centres unmarked) [Compound I-32] | – | – | – | – | – | < 10 nM | 10 to 100 nM | < 10 nM | – | – | – | – | – | 10 to 100 nM | – | – | < 10 nM | < 10 nM | – | –
CC(C)(C)OC(=O)N[C@H]1CN(C(=O)CCl)CCC/C=C\[C@@H]2C[C@@]2(C(=O)NS(=O)(=O)C2CC2)NC(=O)[C@@H]2CC(OC(=O)N3Cc4cccc(F)c4C3)CN2C1=O (some centres unmarked) [Compound I-47] | – | – | – | – | – | – | 10 to 100 nM | < 10 nM | – | – | – | – | – | 10 to 100 nM | – | – | – | 10 to 100 nM | 100 to 1000 nM | inhibited
